Measurements from patent publication US20240239883A1, “METHODS OF TREATING HOMOLOGOUS RECOMBINATION DEFICIENT CANCER” (ASTRAZENECA AB, priority 2020, published 2024).
“And” between values parts separate entries of the source, which are not always exact repeats. Equal values may be shown once.

Experiments:
[1] = test system: patients with newly diagnosed, FIGO stage III-IV, high-grade serous or endometrioid ovarian cancer, fallopian tube or primary peritoneal cancer; assay: PAOLA-1/ENGOT-ov25 phase III trial, first line maintenance: progression-free survival and other efficacy variables; format: in vivo, human
Method: Olaparib tablets orally 300 mg twice daily (bd) • 2. Placebo tablets orally 300 mg bd
Patients included in the study were female patients with newly diagnosed advanced (FIGO (International Federation of Gynaecology and Obstetrics) Stage IIIB, IIIC or IV) ovarian cancer, primary peritoneal cancer and/or fallopian tube cancer that was histologically confirmed as: (a) high-grade serous, or (b) high-grade endometrioid, or (c) other epithelial non mucinous ovarian cancer in a patient with gBRCA1 or 2 deleterious mutation.
Additionally, patents had completed first line platinum-taxane chemotherapy prior to randomization. Specifically, the platinum-taxane based regimen consisted of a minimum of 6 and a maximum of 9 treatment cycles; however, if platinum-based therapy was discontinued early as a result of non-haematological toxicity specifically related to the platinum regimen, (i.e., neurotoxicity, hypersensitivity, etc.), patients must have received a minimum of 4 cycles of the platinum regimen. Intravenous, intraperitoneal, or neoadjuvant platinum based chemotherapy was also allowed; for weekly therapy, 3 weeks was considered to be 1 cycle.
Prior to randomization, patients had no evidence of disease (NED) or had been in clinical complete response (CR) or in partial response (PR) following first line treatment. There should have been no clinical evidence of disease progression (physical exam, imaging, or cancer antigen-125 (CA-125)) throughout the first line treatment and prior to study randomization.
Finally, patients were randomized at least 3 weeks and no more than 9 weeks after their last dose of chemotherapy (last dose is the day of the last infusion) and all major toxicities from the previous chemotherapy were resolved.
Tumor samples from the patients were tested post-randomization (but prior to database lock) using the Myriad myChoice® HRD Plus test in order to investigate efficacy in pre-defined biomarker subgroups. The Myriad myChoice® HRD Plus test is delivered from a single central laboratory in Salt Lake City, Utah; it detects and classifies the following biomarkers simultaneously in tumor tissue:
Myriad HRD status is based on the Myriad HRD score and tBRCAm status. A positive Myriad HRD status is determined either by presence of a tBRCA1/2 mutation or by an HRD score at or above a pre-specified cut-off in the absence of a BRCA1/2 mutation. The Myriad HRD cut-off of 42 detects 95% of BRCAm tumors and has been extensively investigated as a biomarker of PARP inhibitor benefit in ovarian cancer. The cut-off of 42 has now been FDA-approved for another PARP inhibitor for the treatment of relapsed ovarian cancer (Myriad myChoice® HRD test offered under the name myChoice® CDx). Reducing the cut-off to 33, enables detection of 99% of BRCAm tumors and retrospective analyses from 2 clinical studies raised the possibility that a 33 cut-off may provide greater precision in determining patients who may benefit from PARP inhibitor treatment.
The data cut-off (DCO) for the analysis of progression-free survival (PFS) PFS is time from randomization to first progression or death according to modified Response Evaluation Criteria in Solid Tumours (RECIST version 1.1). PFS took place when 474 progression events had occurred (58.8% maturity), approximately 45 months after the first patient was randomized. At this DCO, all efficacy, QoL and safety variables were analyzed, as appropriate, based on the amount of data available at that time.
PFS (based on investigator assessment) was the primary variable for the study and was analyzed based on the primary data cut-off using the investigator assessment population.

[2] = in vivo
Method: The study design was put into practice as the PAOLA-1/ENGOT-ov25 trial (NCT02477644), which was a randomised, double-blind, international phase III trial that enrolled patients with newly diagnosed, FIGO stage III-IV, high-grade serous or endometrioid ovarian cancer, fallopian tube or primary peritoneal cancer.
Patients were randomized in a 2:1 ratio to the treatments as specified below: • 1. Olaparib tablets orally 300 mg twice daily (bd) • 2. Placebo tablets orally 300 mg bd
The “overall study duration” phase was defined as from the first dose of olaparib or placebo until the last dose of olaparib or placebo+30 days (to account for the 30 day follow-up period).
Common Terminology Criteria for Adverse Events (CTCAE) (version 4.03) defines Grade 1 hypertension as having systolic BP 120-139 mmHg or diastolic BP 80-89 mm Hg; Grade 2 as having systolic BP 140-159 mmHg or diastolic BP 90-99 mm Hg, or recurrent or persistent (≥24 hrs) symptomatic increase by >20 mm Hg (diastolic) or to >140/90 mmHg; Grade 3 as having systolic BP ≥160 mmHg or diastolic BP ≥100 mmHg; Grade 4 hypertension as having life-threatening consequences, e.g., requiring urgent intervention; and Grade 5 hypertension as death.
An adverse event considered “serious” if, in the view of either the investigator or sponsor, it results in any of the following outcomes: death, a life-threatening adverse event, inpatient hospitalization or prolongation of existing hospitalization, or a persistent or significant incapacity or substantial disruption of the ability to conduct normal life functions.
Common Terminology Criteria for Adverse Events (CTCAE) (version 4.03) defines Grade 1 proteinuria as urine dipstick 1+ or <1.0 grams of protein per 24 hours; Grade 2 as urine dipstick 2+ or 1.0-3.4 grams of protein per 24 hours; Grade 3 as urine dipstick 4+ or ≥3.5 grams of protein per 24 hours.

[3] = cited from earlier work
[4] = overall population, KM estimate
[5] = overall population, KM estimate, listed as placebo-plus-bevacizumab
[6] = overall population, KM estimate, listed as placebo/bevacizumab

O=C(c1cc(Cc2n[nH]c(=O)c3ccccc23)ccc1F)N1CCN(C(=O)C2CC2)CC1 [olaparib, 4-[(3-{[4-(cyclopropane-carbonyl)piperazine-1-yl]carbonyl}-4-fluorophenyl)methyl]-2H-phthalazin-1-one]
progression free survival greater than for subjects receiving bevacizumab alone ([1]; overall subject population, olaparib in addition to bevacizumab): at least 4 months

Placebo/bevacizumab: Comparator arm: placebo tablets plus bevacizumab 15 mg/kg every 3 weeks (bevacizumab alone, without olaparib)
patients not classified as having had a second progression at the time of analysis (PFS2) ([1]; PFS2 data 39.1% mature): 55.8% | median time until the first subsequent treatment ([1]; all patients): 18.5 months | rate of freedom from second disease progression and death at 18 months ([1]; interim analysis of second progression-free survival, data maturity 39%, Kaplan-Meier estimate): 80% | patients for whom progression occurred on treatment ([1]; overall population): 71.6% | patients not classified as having progressed at the time of analysis ([1]; overall population): 27.9% | n (%) of events (PFS) ([1]; overall population (FAS), investigator assessment, modified RECIST 1.1 or death, primary data cut-off): 194 (72.1) n (%) | Progression free at 6 months [1, 4]: 85.3% | Progression free at 12 months [1, 4]: 65.6% | Progression free at 18 months [1, 4]: 45.8% | Progression free at 24 months [1, 4]: 27.7% | Progression free at 12 months [1, 5]: 66% | Progression free at 18 months [1, 5]: 46% | Progression free at 24 months [1, 5]: 28% | Progression free at 12 months [1, 6]: 65.6% | Progression free at 24 months [1, 6]: 27.7% | Median PFS (95% CI) ([1]; overall population, KM techniques): 16.6 months and 16.6 (15.4, 18.6) months | proportion of patients with PFS events ([1]; overall population, at data cut-off (474 events, 58.8% maturity)): 72.1% | median progression-free survival ([1]; patients with HRD-negative tumors (277 patients)): 16.2 months | median progression-free survival ([1]; patients with HRD-negative tumors or whose tumor HRD status was unknown (419 patients)): 16.0 months | median progression-free survival ([1]; patients with HRD-positive tumors that did not have BRCA mutations (FIG. 3D)): 16.6 months | median progression-free survival ([1]; patients with a tumor BRCA mutation (FIG. 3A)): 21.7 months | median progression-free survival ([1]; patients with tumors positive for HRD (score ≥42 on myChoice HRD Plus or tumor BRCA mutation) (FIG. 3C)): 17.7 months | median progression-free survival ([1]; patients without a tumor BRCA mutation (FIG. 3B)): 16.0 months | Hypertension (serious adverse events) [2]: 35 (13.1) Number (%) of patients | Hypertension CTCAE all Grades [2]: 160 (59.9) Number (%) of patients | Proteinuria CTCAE Grade 3 or higher [2]: 1 (0.4) Number (%) of patients | Proteinuria CTCAE all Grades [2]: 40 (15.0) Number (%) of patients | Vascular disorders (serious adverse events) [2]: 35 (13.1) Number (%) of patients | adverse drug reactions of proteinuria [2]: 15.4% | patients who reported adverse events (AEs) [2]: 95.9%

bevacizumab: recombinant humanized monoclonal IgG1 antibody, vascular endothelial growth factor inhibitor
overall incidence of proteinuria (all grades) ([3]; Study BO17705): 20% | patients in whom proteinuria did not resolve ([3]; after median follow-up of 11.2 months): 40% | proteinuria required discontinuation of bevacizumab ([3]; of the patients who developed proteinuria): 30% | incidence of CTCAE Grade ≥3 hypertension [2]: about 30%
